From patent US20130244879A1, “USE OF LIPO-CHITOOLIGOSACCHARIDES TO INITIATE EARLY FLOWERING AND FRUIT DEVELOPMENT IN PLANTS AND RELATED METHODS AND COMPOSITIONS” (NOVOZYMES BIOLOGICALS HOLDING A/S, priority 2003, published 2013)

What was measured:
Format in all cases: in vivo
Cobra tomatoes = experiment: Trial 1: LCO dose and delivery medium on greenhouse tomato (Cobra); settings: for more flowers than other treatments and control: 50 ng LCO
Method: Cobra (a hybrid cultivar) was used to examine optimum application dose between 10 and 100 ng/plant at one or two applications and the LCO delivery medium. The levels chosen were the extremes of beneficial doses determined previously in tomato field trials. The delivery media tested were LCO in water, Apex and centrifuged Apex. The first application of LCO was made 10 days after transplanting. When applied a second time it was 2 weeks after the first application. The following parameters were tested: leaf number, plant height, number of cluster, number of flower, number of fruit. Observations were made continuously for approximately a two-month period, at one-week intervals until plant growth was limited by pot bound roots. The cobra seedlings were transplanted 32 days after seeding, the first application was 10 days thereafter, the second application was 14 days after the first application. The fruits were harvested 6 weeks after the second application.

Marigold = experiment: Experiment 5: foliar application of LCO to bedding plants (Marigold)
Source text: This is a growth room study. Seeds of garden plant species were selected on the basis of seed-purchase popularity (Norseco, Montreal), grown in trays of Pro-Mix (NB. trademarked name) Seeding Medium, and at some size were transplanted into trays of 36 and 32 wells containing the same medium. Growth proceeded under lights in the growth room. Some 2 weeks before expected flowering, 16 young plants were sprayed with each of various levels of LCO leaving control plants untreated. The results are presented in Table 5A on bud formation and where possible opened flowers.

pepper (cv. Camelot) = experiment: Experiment 7: foliar application of LCO on pepper
Method: 13 pepper seedlings (cv. Camelot, 6-leaf stage) were transplanted in 2 rows per plot (3.5×2.5M^2). The rows were covered with 65 cm width black plastic mulch one week before transplanting. Fertilizer (10-52-10) solution of 250 ppm was applied into the planting hole through the mulch when transplanting (approx. 250 ml per plant). The drip irrigation system was set to twice a week and 4 hours each time, depending on the soil moisture. Plants were sprayed with LCO 14 days after transplanting (5 ml/plant) and 27 days after transplanting (50 ml/plant).

soybean (cv. Nortman) = experiment: Experiment 18: LCO foliar application on legume (soybean)
Method: A short heat-unit variety of soybean (cv. Nortman, HU 2425) was planted at density of plants on the field of approx. 300 plants per plot (500,000 plants/ha). The soybean plants were first treated with LCO at their blooming stage 24 days after planting. The treatment amounts of LCO (detailed above) were diluted with distilled water to give a 2-litre solution sprayed over 4 plots of the treatment. The second application was sprayed at the podding stage 49 days after planting. As before, the LCO was diluted with distilled water to 2-litre solution per 4 plots of the treatment. The plants receiving a single application were sprayed with LCO for the first time, whereas the plants receiving a double application were sprayed for the second time. A CO2 pressure sprayer was employed for this trial. The amount of fluid dispensed by the sprayer was controlled by the nozzle size. It was calibrated with water prior to spraying with LCO. Biomass was examined 58 days after planting by digging out by hand 5 plants per plot. The final yield was obtained by harvesting by combine the intact area (2-meter long to the end) 101 days after planting. The data were analyzed with the SAS program.

[1] = 50 ml/16 plants of 3 × 10^−8M LCO

Lipo-chitooligosaccharides [LCO]
Number of Flowers/Plant (Cobra tomatoes; 10 ng, Dec. 30): 1.2 | Number of Flowers/Plant (Cobra tomatoes; 10 ng, Jan. 07): 2.4 | Number of Fruit/Plant (Cobra tomatoes; 10 ng, Jan. 07): 0.3 | Number of Flowers/Plant (Cobra tomatoes; 10 ng, Jan. 15): 4.4 | Number of Fruit/Plant (Cobra tomatoes; 10 ng, Jan. 15): 1.8 | Number of Flowers/Plant (Cobra tomatoes; 10 ng, Jan. 22): 5.6 | Number of Fruit/Plant (Cobra tomatoes; 10 ng, Jan. 22): 2.1 | Number of Flowers/Plant (Cobra tomatoes; 10 ng, Jan. 31): 8.1 | Number of Fruit/Plant (Cobra tomatoes; 10 ng, Jan. 31): 2.5 | Fruit Weight (Cobra tomatoes; 10 ng, Mean of bases): 87.09 Gram/Plant | Fruit Weight (Cobra tomatoes; 10 ng, base Bacterial Camer): 97.97 Gram/Plant | Fruit Weight (Cobra tomatoes; 10 ng, base Bacterial Supernatent): 67.2 Gram/Plant | Fruit Weight (Cobra tomatoes; 10 ng, base Water): 96.11 Gram/Plant | early yield (fruit weight) vs untreated control (Cobra tomatoes; 50 ng LCO treatment): statistically significant effect | more flowers than other treatments and control (Cobra tomatoes; January 15): 21% | more flowers than other treatments and control (Cobra tomatoes; January 22): 14% | Number of Flowers/Plant (Cobra tomatoes; 50 ng, Dec. 30): 0.97 | Number of Flowers/Plant (Cobra tomatoes; 50 ng, Jan. 07): 2.5 | Number of Fruit/Plant (Cobra tomatoes; 50 ng, Jan. 07): 0.33 | Number of Flowers/Plant (Cobra tomatoes; 50 ng, Jan. 15): 5.2 | Number of Fruit/Plant (Cobra tomatoes; 50 ng, Jan. 15): 2.2 | Number of Flowers/Plant (Cobra tomatoes; 50 ng, Jan. 22): 6.7 | Number of Fruit/Plant (Cobra tomatoes; 50 ng, Jan. 22): 2.5 | Number of Flowers/Plant (Cobra tomatoes; 50 ng, Jan. 31): 8.7 | Number of Fruit/Plant (Cobra tomatoes; 50 ng, Jan. 31): 2.9 | Fruit Weight (Cobra tomatoes; 50 ng, Mean of bases): 104.26 Gram/Plant | Fruit Weight (Cobra tomatoes; 50 ng, base Bacterial Camer): 103.32 Gram/Plant | Fruit Weight (Cobra tomatoes; 50 ng, base Bacterial Supernatent): 100.48 Gram/Plant | Fruit Weight (Cobra tomatoes; 50 ng, base Water): 108.99 Gram/Plant | Number of Flowers/Plant (Cobra tomatoes; 100 ng, Dec. 30): 0.9 | Number of Flowers/Plant (Cobra tomatoes; 100 ng, Jan. 07): 2.2 | Number of Fruit/Plant (Cobra tomatoes; 100 ng, Jan. 07): 0.37 | Number of Flowers/Plant (Cobra tomatoes; 100 ng, Jan. 15): 4.4 | Number of Fruit/Plant (Cobra tomatoes; 100 ng, Jan. 15): 1.7 | Number of Flowers/Plant (Cobra tomatoes; 100 ng, Jan. 22): 6.2 | Number of Fruit/Plant (Cobra tomatoes; 100 ng, Jan. 22): 2.1 | Number of Flowers/Plant (Cobra tomatoes; 100 ng, Jan. 31): 8.7 | Number of Fruit/Plant (Cobra tomatoes; 100 ng, Jan. 31): 2.6 | Fruit Weight (Cobra tomatoes; 100 ng, Mean of bases): 87.99 Gram/Plant | Fruit Weight (Cobra tomatoes; 100 ng, base Bacterial Camer): 66.26 Gram/Plant | Fruit Weight (Cobra tomatoes; 100 ng, base Bacterial Supernatent): 109.13 Gram/Plant | Fruit Weight (Cobra tomatoes; 100 ng, base Water): 88.57 Gram/Plant | advance of flowering over control (Cobra tomatoes; Trial 1, FIG. 5, Table 3): 4 to 5 days | advance in early fruiting over control (Cobra tomatoes; Trial 1, second graph): 8 to 9 days | optimal application (early fruit set) (Cobra tomatoes; three to four weeks after application): approximately 50 ng per plant | plants with 4 flower buds per plant (Marigold; 50 ng treatment): 2 | Total Number of Marigold buds (Marigold; 20 ml/16 plants of 10^−7M LCO): 26 | Total Number of Marigold flower (Marigold; 20 ml/16 plants of 10^−7M LCO): 0 | Total Number of Marigold buds (Marigold; 20 ml/16 plants of 10^−8M LCO): 25 | Total Number of Marigold flower (Marigold; 20 ml/16 plants of 10^−8M LCO): 2 | Total Number of Marigold buds (Marigold; 20 ml/16 plants of 10^−9M LCO): 24 | Total Number of Marigold flower (Marigold; 20 ml/16 plants of 10^−9M LCO): 1 | Total Number of Marigold buds (Marigold; [1]): 34 | Total Number of Marigold flower (Marigold; [1]): 3 | First 4 wk yield, Fruit/plant (pepper (cv. Camelot); 14 ng/plant): 5.79ab Fruit/plant | First 4 wk yield, gram/plant (pepper (cv. Camelot); 14 ng/plant): 784.91ab gram/plant | First 4 wk yield, Fruit/plant (pepper (cv. Camelot); 50 ng/plant): 5.83ab Fruit/plant | First 4 wk yield, gram/plant (pepper (cv. Camelot); 50 ng/plant): 833.79ab gram/plant | First 4 wk yield, Fruit/plant (pepper (cv. Camelot); 75 ng/plant): 5.77ab Fruit/plant | First 4 wk yield, gram/plant (pepper (cv. Camelot); 75 ng/plant): 835.26ab gram/plant | First 4 wk yield, Fruit/plant (pepper (cv. Camelot); 100 ng/plant): 4.87b Fruit/plant | First 4 wk yield, gram/plant (pepper (cv. Camelot); 100 ng/plant): 694.48b gram/plant | First 4 wk yield, Fruit/plant (pepper (cv. Camelot); 141 ng/plant): 6.48a Fruit/plant | First 4 wk yield, gram/plant (pepper (cv. Camelot); 141 ng/plant): 934.83a gram/plant | First 4 wk yield, Fruit/plant (pepper (cv. Camelot); 282 ng/plant): 5.02ab Fruit/plant | First 4 wk yield, gram/plant (pepper (cv. Camelot); 282 ng/plant): 702.87b gram/plant | best dose (pepper (cv. Camelot); 5 ml of 2×10^−8M): 141 ng/plant | increase of fruit number in the early stages (pepper (cv. Camelot); foliar application): approximately 1 fruit per plant | Biomass (g/5-plant) (soybean (cv. Nortman); LCO 1 ng, applied once): 49.46 AB g/5-plant | Yield (kg/ha) (soybean (cv. Nortman); LCO 1 ng, applied once): 2563.96 AB kg/ha | Biomass (g/5-plant) (soybean (cv. Nortman); LCO 1 ng, applied twice): 55.10 AB g/5-plant | Yield (kg/ha) (soybean (cv. Nortman); LCO 1 ng, applied twice): 2673.54 AB kg/ha | Biomass (g/5-plant) (soybean (cv. Nortman); LCO 10 ng, applied once): 46.28 AB g/5-plant | Yield (kg/ha) (soybean (cv. Nortman); LCO 10 ng, applied once): 2515.33 B kg/ha | Biomass (g/5-plant) (soybean (cv. Nortman); LCO 10 ng, applied twice): 60.11 A g/5-plant | Yield (kg/ha) (soybean (cv. Nortman); LCO 10 ng, applied twice): 2385.75 B kg/ha | Biomass (g/5-plant) (soybean (cv. Nortman); LCO 100 ng, applied once): 46.87 AB g/5-plant | Yield (kg/ha) (soybean (cv. Nortman); LCO 100 ng, applied once): 2635.00 AB kg/ha | Biomass (g/5-plant) (soybean (cv. Nortman); LCO 100 ng, applied twice): 55.09 AB g/5-plant | Yield (kg/ha) (soybean (cv. Nortman); LCO 100 ng, applied twice): 2974.17 A kg/ha | Biomass (g/5-plant) (soybean (cv. Nortman); LCO 1000 ng, applied once): 47.99 AB g/5-plant | Yield (kg/ha) (soybean (cv. Nortman); LCO 1000 ng, applied once): 2452.71 B kg/ha | Biomass (g/5-plant) (soybean (cv. Nortman); LCO 1000 ng, applied twice): 47.81 AB g/5-plant | Yield (kg/ha) (soybean (cv. Nortman); LCO 1000 ng, applied twice): 2620.42 AB kg/ha
